Where two headings read alike, the source gives them in different places.
System: A549 cells
Assay: Inhibition of cell growth in tumor cells, MTT assay
Format: cell-based
Conditions: Homo sapiens, read-out: A549 cell IC50
Experimental: Inhibition of cell growth by compounds was measured using MTT assay (Mosmann, T., Journal of Immunological Methods, 1983, 65, 55-63). Tumor cell lines were purchased from ATCC (American Type Culture Collection, Manassas, Va.). All cell lines were maintained in RPMI 1640 (Hyclone) supplemented with 10% fetal bovine serum (FBS, Hyclone), glutamine (2 mM, Hyclone), and antibiotics (penicillin 100 U/mL and streptomycin 50 μg/mL) at 37° C. in a humidified atmosphere of 5% CO2 in air. Taxol (positive control, Sigma) and compounds were dissolved in DMSO (Sigma), and the final concentration of DMSO in the medium was 1%. Tumor cells were plated in 96-well plates at densities from 4000 cells/well of a 96-well plate and allowed to adhere/grow for 24 h. They were then treated with various concentrations of drug for 72 h. […] The number of cells remaining after 72 h was compared to the number of viable cells at the time of compound addition by measuring the absorbance at 570 nm, allowing for the calculation of growth inhibition.
All concentrations of compounds were tested in triplicate and controls were averaged over 4 wells. IC50 was calculated by plotting the concentration of compound vs the percentage of inhibition in treated wells using GraphPad Prism 5. […]

Row | SMILES | IC50 (A549, 72 h) [nM] | IC50 (A549 cells, MTT assay, 72 h compound exposure) [nM]
1 | CC(=O)O[C@H]1C[C@]2(O)[C@@H]3CC[C@@H]4C[C@@H](OC(=O)N5CCNCC5)CC[C@]4(C)[C@H]3CC[C@]2(C)[C@H]1c1ccc(=O)oc1 [(3S,5R,8R,9S,10S,13R,14S,16S,17R)-16-acetoxy-14-hydroxy-10,13-dimethyl-17-(2-oxo-2H-pyran-5-yl)hexadecahydro-1H-cyclopenta[a]phenanthren-3-yl piperazine-1-carboxylate] | 5.6 | 
2 | C[C@]12CC[C@H](OC(=O)N3CCNCC3)C[C@H]1CC[C@@H]1[C@@H]2CC[C@]2(C)[C@@H](C3=CC(=O)OC3)CC[C@]12O [(3S,5R,8R,9S,10S,13R,14S,17R)-14-hydroxy-10,13-dimethyl-17-(5-oxo-2,5-dihydrofuran-3-yl)hexadecahydro-1H-cyclopenta[a]phenanthren-3-yl piperazine-1-carboxylate] |  | 39

— patent publication US10344048B2, “Certain chemical entities, compositions, and methods” (priority 2011, dated 2019)
